Reference: US8765763B2, “Substituted piperazines as CGRP antagonists” (Boehringer Ingelheim International GmbH, priority 2009, dated 2014)

Each compound was assayed against T1, human CGRP receptor (Homo sapiens, UniProt O60894+Q16602) (assay: Binding studies with SK-N-MC cells (expressing the human CGRP receptor), 125I-iodotyrosyl-CGRP displacement on SK-N-MC membranes). Conditions: 50 pM 125I-iodotyrosyl-CGRP, 180 minutes at ambient temperature.
T1 construct: SK-N-MC membranes (˜20 μg protein) are incubated for 180 minutes at ambient temperature; endogenous in cells; host or cells: SK-N-MC cells (membranes)
Protocol: A. Binding Studies with SK-N-MC Cells (Expressing the Human CGRP Receptor)
SK-N-MC membranes (˜20 μg protein) are incubated for 180 minutes at ambient temperature with 50 pM ^125I-iodotyrosyl-Calcitonin-Gene-Related Peptide and increasing concentrations of the test substances in a total volume of 250 μl (assay buffer: 10 mM tris, 50 mM NaCl, 5 mM MgCl2, 1 mM EDTA, pH=7.4). The incubation is ended by rapid filtration through GF/B-glass fibre filters treated with polyethyleneimine (0.1%) using a cell harvester. The protein-bound radioactivity is measured using a gamma counter. Non-specific binding is defined as the bound radioactivity after the presence of 1 μM BIBN4096BS during incubation.
The concentration binding curves are analysed using computer-aided non-linear curve fitting.

T1 sequence (Q16602 23-461): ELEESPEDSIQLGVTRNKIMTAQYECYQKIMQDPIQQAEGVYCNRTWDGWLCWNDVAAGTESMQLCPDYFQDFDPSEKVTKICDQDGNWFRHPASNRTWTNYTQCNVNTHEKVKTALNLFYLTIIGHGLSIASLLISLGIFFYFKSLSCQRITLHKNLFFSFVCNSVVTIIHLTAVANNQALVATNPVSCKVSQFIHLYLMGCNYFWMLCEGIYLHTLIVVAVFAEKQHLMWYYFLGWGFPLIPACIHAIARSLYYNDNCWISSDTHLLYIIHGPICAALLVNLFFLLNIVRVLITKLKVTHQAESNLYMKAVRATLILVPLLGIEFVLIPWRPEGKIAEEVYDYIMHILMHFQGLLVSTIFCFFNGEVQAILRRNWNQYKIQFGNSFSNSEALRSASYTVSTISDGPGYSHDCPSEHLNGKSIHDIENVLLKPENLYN
T1 sequence (O60894 27-148): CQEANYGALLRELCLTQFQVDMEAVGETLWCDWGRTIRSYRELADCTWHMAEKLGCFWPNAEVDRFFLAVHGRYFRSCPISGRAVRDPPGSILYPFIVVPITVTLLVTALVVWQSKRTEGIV

Row | SMILES | Ki
1 | O=C(CN1C(=O)[C@H](CC2CCCCCC2)NCC1c1cc(F)cc(F)c1)Nc1ccc2c(c1)C[C@@]1(C2)C(=O)Nc2ncccc21 (single isomer, unassigned) [Example 13 Diastereomer 1] | 720 pM
2 | O=C(CN1C(=O)[C@H](CC2CCCCCC2)NCC1c1cc(F)cc(F)c1)Nc1ccc2c(c1)C[C@@]1(C2)C(=O)Nc2ncccc21 (single isomer, unassigned) [Example 13 Diastereomer 2] | 710 pM
3 | O=C(CN1C(=O)C2(COCCOC2)NCC1c1cc(F)cc(F)c1)Nc1cc2c(cn1)CC1(C2)C(=O)Nc2ncccc21 (stereo not shown) [Example 2] | 1020 pM
4 | O=C(CN1C(=O)C(CC2CCCCCC2)NCC1c1cc(F)cc(F)c1)Nc1ccc2c(c1)CC1(C2)C(=O)Nc2ncccc21 (stereo not shown) [Example 3] | 720 pM
5 | O=C(CN1C(=O)C2(CCC3(CCOCC3)CC2)NC[C@H]1c1cc(F)cc(F)c1)Nc1ccc2c(c1)C[C@@]1(C2)C(=O)Nc2ncccc21 [Example 14, 2-((R)-3-(3,5-difluoro-phenyl)-5-oxo-12-oxa-1,4-diaza-dispiro[5.2.5.2]hexadecan-4-yl)-N-((R)-2′-oxo-1,1′,2′,3-tetrahydrospiro[inden-2,3′-pyrrolo[2,3-b]pyridin]-5-yl)acetamide] | 70 pM
6 | CN1C[C@@H](c2cc(F)cc(F)c2)N(CC(=O)Nc2ccc3c(c2)C[C@@]2(C3)C(=O)Nc3ncccc32)C(=O)C12COCCOC2 [Example 17, 2-((R)-3-(3,5-difluorophenyl)-1-methyl-5-oxo-8,11-dioxa-1,4-diazaspiro[5.6]dodecan-4-yl)-N-((R)-2′-oxo-1,1′,2′,3-tetrahydrospiro[inden-2,3′-pyrrolo[2,3-b]pyridin]-5-yl)acetamide] | 30 pM
7 | COc1cccc(C2CNC3(COCCOC3)C(=O)N2CC(=O)Nc2ccc3c(c2)C[C@@]2(C3)C(=O)Nc3ncccc32)c1 (stereo partly drawn) [Example 18, 2-(3-(3-methoxyphenyl)-5-oxo-8,11-dioxa-1,4-diazaspiro[5.6]dodecan-4-yl)-N—((R)-2′-oxo-1′,2′,3-tetrahydrospiro[inden-2,3′-pyrrolo[2,3-b]pyridin]-5-yl)acetamide] | 840 pM
8 | O=C(CN1C(=O)C2(COCCOC2)NC[C@H]1c1cc(F)cc(F)c1)Nc1cc2c(cc1Cl)CC1(C2)C(=O)Nc2ncccc21 (stereo partly drawn) [Example 19, N-(5-chloro-2′-oxo-1,1′,2′,3-tetrahydrospiro[inden-2,3′-pyrrolo[2,3-b]pyridin]-6-yl)-2-((R)-3-(3,5-difluorophenyl)-5-oxo-8,11-dioxa-1,4-diazaspiro[5.6]dodecan-4-yl)acetamide] | 1410 pM
9 | CC(C)(C)OC(=O)N1C[C@@H](c2ccccc2)N(CC(=O)Nc2ccc3c(c2)C[C@@]2(C3)C(=O)Nc3ncccc32)C(=O)C12COCCOC2 [Example 20, (R)-tert-butyl 5-oxo-4-(2-oxo-2-((R)-2′-oxo-1,1′,2′,3-tetrahydrospiro[inden-2,3′-pyrrolo[2,3-b]pyridin]-5-ylamino)ethyl)-3-phenyl-8,11-dioxa-1,4-diazaspiro[5.6]dodecane-1-carboxylate] | 960 pM
10 | O=C(CN1C(=O)C2(COCCOC2)NC[C@H]1c1ccccc1)Nc1ccc2c(c1)C[C@@]1(C2)C(=O)Nc2ncccc21 [Example 21, N—((R)-2′-oxo-1,1′,2′,3-tetrahydrospiro[inden-2,3′-pyrrolo[2,3-b]pyridin]-5-yl)-2-((R)-5-oxo-3-phenyl-8,11-dioxa-1,4-diazaspiro[5.6]dodecan-4-yl)acetamide] | 440 pM
11 | O=C(CN1C(=O)C2(COCCOC2)NC[C@H]1c1ccc(F)cc1)Nc1ccc2c(c1)C[C@@]1(C2)C(=O)Nc2ncccc21 [Example 22, 2-((R)-3-(4-fluorophenyl)-5-oxo-8,11-dioxa-1,4-diazaspiro[5.6]dodecan-4-yl)-N-((R)-2′-oxo-1,1′,2′,3-tetrahydrospiro[inden-2,3′-pyrrolo[2,3-b]pyridin]-5-yl)acetamide] | 110 pM
12 | O=C(CN1C(=O)C2(COCCOC2)NCC1c1cccc(F)c1)Nc1ccc2c(c1)C[C@@]1(C2)C(=O)Nc2ncccc21 (stereo partly drawn) [Example 23, 2-(3-(3-fluorophenyl)-5-oxo-8,11-dioxa-1,4-diazaspiro[5.6]dodecan-4-yl)-N—((R)-2′-oxo-1,1′,2′,3-tetrahydrospiro[inden-2,3′-pyrrolo[2,3-b]pyridin]-5-yl)acetamide] | 50 pM
13 | O=C(CN1C(=O)C2(COCCOC2)NC[C@H]1c1cc(F)cc(F)c1)Nc1cnc2c(c1)CC1(C2)C(=O)Nc2ncccc21 (stereo partly drawn) [Example 24, 2-((R)-3-(3,5-difluorophenyl)-5-oxo-8,11-dioxa-1,4-diazaspiro[5.6]dodecan-4-yl)-N-(2′-oxo-1′,2′,5,7-tetrahydrospiro[cyclopenta[b]pyridin-6,3′-pyrrolo[2,3-b]pyridin]-3-yl)acetamide] | 70 pM

Other lines, results leading:

Row | Ki | SMILES
14 | 100 pM | O=C(CN1C(=O)C(C2CCOCC2)NCC1c1cc(F)cc(F)c1)Nc1ccc2c(c1)C[C@@]1(C2)C(=O)Nc2ncccc21 (single isomer, unassigned) [Example 15a]
15 | 390 pM | O=C(CN1C(=O)C(C2CCOCC2)NCC1c1cc(F)cc(F)c1)Nc1ccc2c(c1)C[C@@]1(C2)C(=O)Nc2ncccc21 (single isomer, unassigned) [Example 15b]
16 | 5400 pM | O=C(CN1C(=O)[C@@H](CC2CCCCCC2)NCC1c1cc(F)cc(F)c1)Nc1ccc2c(c1)C[C@@]1(C2)C(=O)Nc2ncccc21 (single isomer, unassigned) [Example 16a]
17 | 130 pM | O=C(CN1C(=O)[C@@H](CC2CCCCCC2)NCC1c1cc(F)cc(F)c1)Nc1ccc2c(c1)C[C@@]1(C2)C(=O)Nc2ncccc21 (single isomer, unassigned) [Example 16b]
18 | 30 pM | O=C(CN1C(=O)C2(COCCOC2)NC[C@H]1c1cc(F)cc(F)c1)Nc1ccc2c(c1)C[C@@]1(C2)C(=O)Nc2ncccc21 [Example 1a, 2-((R)-3-(3,5-difluorophenyl)-5-oxo-8,11-dioxa-1,4-diazaspiro[5.6]dodecan-4-yl)-N-((R)-2′-oxo-1,1′,2′,3-tetrahydrospiro[indene-2,3′-pyrrolo[2,3-b]pyridin]-5-yl)acetamide]
19 | 1770 pM | O=C(CN1C(=O)C2(COCCOC2)NC[C@H]1c1cc(F)cc(F)c1)Nc1ccc2c(c1)C[C@]1(C2)C(=O)Nc2ncccc21 [Example 1b, 2-((R)-3-(3,5-difluorophenyl)-5-oxo-8,11-dioxa-1,4-diazaspiro[5.6]dodecan-4-yl)-N-((S)-2′-oxo-1,1′,2′,3-tetrahydrospiro[inden-2,3′-pyrrolo[2,3-b]pyridin]-5-yl)acetamide]
